{"source": "patent US11523995B2", "about": "“Compositions and methods for ablating niche cells in testis and other epithelial cells and methods relating thereto” (Duke University, priority 2017, dated 2022)", "key": {"Sertoli cells": {"tested_on": "Sertoli cells", "assay": "Adult Sertoli cell depletion in vivo (injection into rete testis)", "design": "species or system mouse", "protocol": "Host mice were anesthetized. A glass needle was back-loaded with the drug and 0.02% bromophenol blue to track the success of the injection and extent of delivery into the tissue. The mixture was injected into the rete-testis.\nAdult mouse testis and canine testis tissues were fixed in 4% (wt/vol) paraformaldehyde in PBS at 4° C. overnight and cryoembedded in OCT compound (Sakura Finetek). Samples were cut into 14-μm-thick cryosections. Incubation with primary antibodies was performed overnight at 4° C., followed by 2 washes, and incubation with secondary antibodies for 1 h at room temperature. Nuclei were counterstained with Hoechst 33342 dye. Samples were mounted on glass slides and imaged with a confocal laser microscope (Zeiss 780).\nWe injected a solution of 0.02% BC (or PBS as a control) into the rete testis of anesthetized adult male mice to test the effects of the drug on adult Sertoli cells. To detect Sertoli cells easily, we used a Sox9-ECFP transgenic mouse (FIG. 5). […] However, four days after treatment, Sertoli cells had disappeared from approximately 30-40% of seminiferous tubules."}, "donor spermatogenesis [1]": {"tested_on": "donor spermatogenesis", "assay": "Testicular cell transplantation 7 days post BC treatment", "assay_type": "in vivo, mouse", "settings": "CAG-EGFP pup testicular cells transplanted 7 days post BC", "protocol": "(§1) 10-15 μl of approximately 1×10^6/ml isolated Sertoli cells or 1×10^8/ml (testicular cells) were injected through the rete testis into the seminiferous tubules of a host mouse on day 4 or day 7 after ablation treatment. A glass needle was back-loaded with the cell suspension and 0.04% Trypan blue to track the efficiency of the injection.\nTo determine whether the host testes depleted for both Sertoli and germ cells could be used as a scaffold for engraftment of multiple cell types, we performed testicular cell transplantation 7 days post BC treatment (FIG. 7). Nineteen days after testicular cell transplantation from CAG-EGFP pups into a treated host testis, donor Sertoli cells and SSCs colonized. Donor SSCs proliferated with support from donor Sertoli cells, initiated meiosis, and progressed to the spermatocyte stage. EGFP positive leptotene and pachytene spermatocyte were detected. […] Most of these interstitial EGFP bright donor cells were Leydig cells, and some donor PMC colonization was also detected. […] Round spermatids and elongated spermatids generated from donor SSCs with support from donor Sertoli cells were detected in the host testis. In 9/13 testes, donor Sertoli cell and SSC colonization was observed, and full spermatogenesis was detected in 4 of these hosts."}, "donor spermatogenesis [2]": {"tested_on": "donor spermatogenesis", "assay": "Cryopreserved donor testicular cell transplantation into BC treated testis", "assay_type": "in vivo, mouse", "settings": "cryopreserved (39 days) cells transplanted 7 days after BC; eight weeks after transplantation", "protocol": "After dissociation and washing steps, samples were placed in 2.0 ml cryovials (Corning, N.Y., USA) containing 500 μl of cryopreservation medium, (10% FBS+DMEM containing 10% DMSO). Samples were placed in a controlled freezing device (Mr. Frosty™ Freezing Container, Thermo Fisher Scientific) and cooled in a −80° C. freezer overnight. The following morning the cryovials were transferred to Liquid nitrogen for storage. Prior to use, samples were thawed quickly in a bath warmed to 37° C.\nas §1\nTo test the efficiency of engraftment using cryopreserved donor tissue, we dissociated testis tissue from CAG-EGFP pups, and cryopreserved cells with cryoprotectant including 10% DMSO in liquid nitrogen. Seven days after BC treatment of wild type host mice, cryopreserved (39 days) donor testicular cells were thawed and introduced into the rete testis (FIG. 8). […] In some tubules, cryopreserved Sertoli cells supported host spermatogenesis, and in other tubules, cryopreserved donor Sertoli cells colonized with donor SSCs and supported donor spermatogenesis."}, "epithelial cells": {"tested_on": "epithelial cells", "assay": "In vitro epithelial cell ablation in kidney, GI tract, liver and lung tissue culture", "assay_type": "cell-based, mouse", "settings": "0.03% BC 10 min, cultured 4 days", "protocol": "Fragments of the mouse kidney, GI tract, liver and lung were incubated with 0.03% BC for 10 min. After washing several times with PBS, tissues were placed atop 1.5% agarose blocks (214530; Difco), prepared and placed in 6 well tissue culture plates (353046; Falcon) with ˜500 μl of 10% KnockOut Serum Replacement (KSR) (Invitrogen; 10828-028)+DMEM (11995-065; Gibco) to reach halfway up the side of the block. After culture, tissues were washed in PBS and fixed for immunofluorescence. The culture incubator was supplied with 5% (vol/vol) carbon dioxide in air and maintained at 37° C.\nWe incubated a neonatal kidney, GI tract, liver and lung tissues in 0.03% BC solution for 10 min, washed the tissues several times with PBS and cultured for 4 days at the surface/air interface in wells atop an agarose block (FIG. 9). At the end of that time, the tissues were fixed and stained for immunofluorescence analysis using an antibody against E-CAD (Cadherin1), epithelial marker. […] Although epithelial cells were eliminated in drug treated tissues, LMN (laminin) positive basement membrane and stromal cells which is stained with PDGFRβ were maintained."}, "[3]": {"tested_on": "bladder epithelial cells, urothelium", "assay": "BC injection into bladder in vivo", "design": "species or system mouse", "protocol": "2 months old female mice were anesthetized using Avertin or Isoflurane as anesthetic. Using forceps, the top of the urethral orifice was pinched and pulled up without obstructing the urethra at a ˜45° angle. The catheter tubing end was attachded to a 1 mL syringe, and the tip of the tubing rubbed in medicine mineral jelly. The jelly-topped catheter was carefully inserted into the urethra at a ˜45° angle. The syringe was detached from the catheter, and the mouse's stomach was palpated to produce urine. Using another syringe and catheter, the urine that is produced was aspirated, and emptied into other towel. 20 uL of the BC solution (or PBS) was pipetted directly into the catheter using a pipet tip. It was ensured that the pipet tip contacted the catheter, then the cylinder was fully depressed for ˜3 seconds. The liquid was pushed into the bladder by injecting ˜20 uL of air using a syringe. The catheter was removed and the mouse put back into its cage.\nWe injected a solution of 0.004%, 0.06% BC into the bladder of anesthetized adult female mice to test the effects of the drug on bladder epithelial cells, urothelium. […] However, six days after treatment, urothelium had disappeared from approximately 80% of 0.06% BC treated bladder, some mesenchymal cells were found on straining with antibodies against PDGFRβ and NG2."}}, "note": "Entries after “also recorded” stand apart in the source; their conditions may differ."}
{"substance": "benzalkonium chloride [BC]", "values": [{"measurement": "Sertoli cell depletion based on SOX9 expression", "setting": "Sertoli cells; 0.02% BC into rete testis, day 3", "result": "Sertoli cell depletion was not detected"}, {"measurement": "seminiferous tubules from which Sertoli cells had disappeared", "setting": "Sertoli cells; 0.02% BC into rete testis, four days after treatment", "result": "30-40%"}, {"measurement": "Caspase3 positive Sertoli cells (apoptosis)", "setting": "Sertoli cells; 0.02% BC, 4 days after treatment", "result": "did not detect Caspase3 positive Sertoli cells"}, {"measurement": "Leydig cells and endothelial cells (3βHSD, PECAM1)", "setting": "Sertoli cells; 0.02% BC, day 4", "result": "not obviously affected"}, {"measurement": "PMCs (SMA staining)", "setting": "Sertoli cells; 0.02% BC, day 4", "result": "PMCs were intact"}, {"measurement": "SSCs in drug affected tubules (STRA8, Hu C/D, c-KIT)", "setting": "Sertoli cells; 0.02% BC, day 4", "result": "some SSCs were found along the basal lamina"}, {"measurement": "basic tubular structure (anti-Laminin staining)", "setting": "Sertoli cells; 0.02% BC, day 4", "result": "basic tubular structure was also intact"}, {"measurement": "macrophage invasion and proliferation (F4/80)", "setting": "Sertoli cells; 0.02% BC, day 4", "result": "many macrophages positive for F4/80 surrounded the affected tubules and some had invaded inside"}, {"measurement": "Sertoli cell elimination (summary)", "setting": "Sertoli cells; 4 days after 0.02% BC treatment", "result": "Sertoli cells were eliminated"}, {"measurement": "system-wide / side effects after drug injection into rete testis", "setting": "Sertoli cells; mouse, BC injection", "result": "no apparent system-wide effects; also recorded: no discernable side effects"}, {"measurement": "hosts with full spermatogenesis (of the colonized testes)", "setting": "donor spermatogenesis [1]", "result": 4}, {"measurement": "testes with donor Sertoli cell and SSC colonization", "setting": "donor spermatogenesis [1]", "result": "9/13"}, {"measurement": "host testes colonized by cryopreserved Sertoli cells and SSCs", "setting": "donor spermatogenesis [2]", "result": "3/3"}, {"measurement": "hosts with full spermatogenesis from donor cells", "setting": "donor spermatogenesis [2]", "result": 2}, {"measurement": "LMN positive basement membrane and PDGFRβ stromal cells", "setting": "epithelial cells", "result": "maintained"}, {"measurement": "epithelial cell elimination (E-CAD immunofluorescence)", "setting": "epithelial cells; neonatal kidney, GI tract, liver and lung", "result": "specifically eliminated epithelial cells"}, {"measurement": "inflammation in bladder", "setting": "[3]; 0.004% BC", "result": "did not cause inflammation"}, {"measurement": "urothelium depletion", "setting": "[3]; 0.004% BC, day 6", "result": "urothelium depletion was not detected"}, {"measurement": "macrophage invasion in bladder", "setting": "[3]; 0.03% BC (so in the source)", "result": "Macrophage invasion were observed"}, {"measurement": "urothelium detachment in the lumen of the bladder", "setting": "[3]; 0.06% BC, day 6", "result": "urothelium detachment was observed"}, {"measurement": "part of treated bladder from which urothelium had disappeared", "setting": "[3]; 0.06% BC, six days after treatment", "result": "approximately 80%"}]}
